Results from patent US6703398B2, “Orally administered analgesic compositions containing nalbuphine” (priority 2001, dated 2004).

What was measured:
[1] = Pharmacokinetics of nalbuphine in beagles after oral administration of SDN compositions; details: 30 mg/kg of SDN; for AUC/Dose: nalbuphine in plasma, 30 mg/kg
Protocol: To assess the effects of various pharmaceutical compositions of the present invention on beagles. The compositions were orally administered into beagles, and the concentration of nalbuphine in vivo was monitored in the animals as follows:
2, In each study group, the pharmaceutical composition that contained 30 mg/kg of SDN were orally given to beagles.
4. The blood samples were analyzed by high performance liquid chromatography (HPLC) to determine the pharmacokinetics (including the half-life and bioavailability of nalbuphine) in vivo.

[2] = Efficacy and bioavailability study of nalbuphine ester prodrugs as orally administered compositions; type: in vivo, animals and humans; details: oral composition with oily substance, effect of adding the solubility-assisting agent; comparison among active ingredients
Description: Each and every one of these nalbuphine and/or nalbuphine ester prodrugs as listed above has been tested for suitability as an orally administered pharmaceutical composition for use in animals and humans. The efficacy and bioavailability of these nalbuphine ester prodrugs have been studied.

[3] = literature; cited from earlier work

| Compound | concentration of nalbuphine in plasma 1-3 hours after the oral uptake of SDN ([1]; FIG. 1, comparison among groups) | concentration of nalbuphine in plasma after the peak ([1]; FIG. 1, later time points) | Bioavailability ([1]; bioavailability of nalbuphine, means ± S.E.) | Nalbuphine Half-Life ([1]; nalbuphine in plasma by HPLC, means ± S.E.) | AUC/Dose ([1]; means ± S.E.) | AUC/Dose ([1]; means ± S.E., listed as SDN Powder Group) | bioavailability and half-life of nalbuphine in blood [2] | bioavailability through oral administration [3] |
| --- | --- | --- | --- | --- | --- | --- | --- | --- |
| O=C(CCCCCCCCC(=O)Oc1ccc2c3c1O[C@H]1[C@@H](O)CC[C@@]4(O)[C@@H](C2)N(CC2CCC2)CC[C@]314)Oc1ccc2c3c1O[C@H]1[C@@H](O)CC[C@@]4(O)[C@@H](C2)N(CC2CCC2)CC[C@]314 [SDN Powder, sebacoyl dinalbuphine ester] | much less than the other two groups | decreased substantially | 14.6% | 8.1 ± 1.6 h | 39 ± 11 ng·kg·h/mL/mg | 39 ng·kg·h/mL/mg | the best in terms of longer half-life and greater bioavailability rate |  |
| nalbuphine hydrochloride [nalbuphine-HCl] |  |  |  |  |  |  |  | less than 5% |
